Source: ChEMBL document CHEMBL5291721, “A preclinical secondary pharmacology resource illuminates target-adverse drug reaction associations of marketed drugs” (Nat Commun, 2023)

Assays:
[1] = molecular target: Growth hormone secretagogue receptor type 1 (Homo sapiens, UniProt Q92847)
[2] = molecular target: T1, 5-hydroxytryptamine receptor 3A (Homo sapiens, UniProt P46098); type: functional
T1 sequence (P46098 whole entry): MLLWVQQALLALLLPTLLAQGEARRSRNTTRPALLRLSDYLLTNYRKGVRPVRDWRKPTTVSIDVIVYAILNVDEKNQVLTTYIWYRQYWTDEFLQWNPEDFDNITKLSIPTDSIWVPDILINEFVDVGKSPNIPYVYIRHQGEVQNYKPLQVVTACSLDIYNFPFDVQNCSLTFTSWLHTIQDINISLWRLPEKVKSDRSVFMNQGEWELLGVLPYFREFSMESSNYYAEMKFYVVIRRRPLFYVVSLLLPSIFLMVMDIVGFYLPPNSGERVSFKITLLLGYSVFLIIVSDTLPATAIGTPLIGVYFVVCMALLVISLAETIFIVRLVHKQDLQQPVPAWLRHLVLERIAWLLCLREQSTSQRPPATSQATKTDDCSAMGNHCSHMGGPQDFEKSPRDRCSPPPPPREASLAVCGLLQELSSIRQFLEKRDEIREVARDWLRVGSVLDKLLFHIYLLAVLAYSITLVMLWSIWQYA

[3] = molecular target: Sodium-dependent dopamine transporter (Homo sapiens, UniProt Q01959)
[4] = molecular target: T2, Alpha-2B adrenergic receptor (Homo sapiens, UniProt P18089)
T2 sequence (P18089 whole entry): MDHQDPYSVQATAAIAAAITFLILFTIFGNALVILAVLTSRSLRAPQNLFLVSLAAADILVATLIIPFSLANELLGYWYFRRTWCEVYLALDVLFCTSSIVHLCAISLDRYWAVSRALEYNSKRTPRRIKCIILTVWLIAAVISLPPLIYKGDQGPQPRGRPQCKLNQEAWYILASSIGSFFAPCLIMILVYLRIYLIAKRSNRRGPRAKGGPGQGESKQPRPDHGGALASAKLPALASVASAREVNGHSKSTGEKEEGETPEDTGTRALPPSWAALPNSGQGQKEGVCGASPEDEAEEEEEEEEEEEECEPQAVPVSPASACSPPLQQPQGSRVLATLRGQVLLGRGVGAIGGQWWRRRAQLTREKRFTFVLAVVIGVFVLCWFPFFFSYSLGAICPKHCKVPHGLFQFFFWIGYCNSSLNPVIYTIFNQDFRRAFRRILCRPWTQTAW

Adenosine receptor A3 = molecular target: T3, Adenosine receptor A3 (Homo sapiens, UniProt P0DMS8)
T3 sequence (P0DMS8 whole entry): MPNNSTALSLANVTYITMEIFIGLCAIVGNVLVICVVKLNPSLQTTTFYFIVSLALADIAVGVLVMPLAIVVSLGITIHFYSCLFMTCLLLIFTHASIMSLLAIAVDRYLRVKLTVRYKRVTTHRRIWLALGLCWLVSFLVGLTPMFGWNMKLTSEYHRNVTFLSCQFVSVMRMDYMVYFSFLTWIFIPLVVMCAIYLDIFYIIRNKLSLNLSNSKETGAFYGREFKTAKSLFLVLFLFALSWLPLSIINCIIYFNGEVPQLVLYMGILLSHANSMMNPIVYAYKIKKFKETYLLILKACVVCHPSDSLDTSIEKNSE

[5] = molecular target: T4, Type-1 angiotensin II receptor (Homo sapiens, UniProt P30556)
T4 sequence (P30556 whole entry): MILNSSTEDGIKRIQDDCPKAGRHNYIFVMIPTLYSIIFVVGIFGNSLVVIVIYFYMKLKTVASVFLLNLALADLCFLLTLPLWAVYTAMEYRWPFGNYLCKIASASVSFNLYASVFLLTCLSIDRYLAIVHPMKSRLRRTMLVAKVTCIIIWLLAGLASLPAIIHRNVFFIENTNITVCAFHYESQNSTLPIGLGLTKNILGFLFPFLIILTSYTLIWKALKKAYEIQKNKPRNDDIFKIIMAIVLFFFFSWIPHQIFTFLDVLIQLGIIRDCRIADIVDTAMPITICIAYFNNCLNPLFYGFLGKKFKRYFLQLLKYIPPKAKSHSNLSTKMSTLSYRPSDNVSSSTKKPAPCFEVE

Histamine H2 receptor = Histamine H2 receptor (Homo sapiens, UniProt P25021); type: functional, cell-based
[6] = molecular target: Muscarinic acetylcholine receptor M3 (Homo sapiens, UniProt P20309)
Progesterone receptor = molecular target: T5, Progesterone receptor (Homo sapiens, UniProt P06401); type: functional
T5 sequence (P06401 whole entry): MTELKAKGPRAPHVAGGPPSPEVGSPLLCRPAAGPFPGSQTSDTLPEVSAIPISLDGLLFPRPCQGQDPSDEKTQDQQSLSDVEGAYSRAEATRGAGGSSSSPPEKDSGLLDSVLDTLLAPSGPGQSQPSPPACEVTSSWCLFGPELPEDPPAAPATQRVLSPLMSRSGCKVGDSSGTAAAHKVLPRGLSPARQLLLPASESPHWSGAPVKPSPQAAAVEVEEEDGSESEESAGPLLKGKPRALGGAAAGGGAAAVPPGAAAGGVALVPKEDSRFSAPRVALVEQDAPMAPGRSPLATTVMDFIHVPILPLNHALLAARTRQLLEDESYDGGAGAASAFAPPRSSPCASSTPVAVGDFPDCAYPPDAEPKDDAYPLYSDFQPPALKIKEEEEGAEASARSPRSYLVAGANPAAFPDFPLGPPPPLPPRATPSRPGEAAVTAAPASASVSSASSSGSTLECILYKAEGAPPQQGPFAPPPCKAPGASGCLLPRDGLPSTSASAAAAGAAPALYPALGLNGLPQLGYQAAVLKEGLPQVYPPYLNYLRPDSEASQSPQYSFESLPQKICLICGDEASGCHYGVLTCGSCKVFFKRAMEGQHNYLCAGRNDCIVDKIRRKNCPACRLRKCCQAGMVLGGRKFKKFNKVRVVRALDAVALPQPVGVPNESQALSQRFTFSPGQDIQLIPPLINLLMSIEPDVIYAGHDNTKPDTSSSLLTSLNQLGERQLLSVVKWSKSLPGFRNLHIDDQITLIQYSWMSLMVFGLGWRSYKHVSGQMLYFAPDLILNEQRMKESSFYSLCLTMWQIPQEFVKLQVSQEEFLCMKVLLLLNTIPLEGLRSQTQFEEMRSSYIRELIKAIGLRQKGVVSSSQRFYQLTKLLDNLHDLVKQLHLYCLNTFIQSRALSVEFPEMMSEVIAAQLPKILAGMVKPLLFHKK

Measured: AC50
Note: assay procedure not described here.

Sequence of Muscarinic acetylcholine receptor M3 (P20309 whole entry): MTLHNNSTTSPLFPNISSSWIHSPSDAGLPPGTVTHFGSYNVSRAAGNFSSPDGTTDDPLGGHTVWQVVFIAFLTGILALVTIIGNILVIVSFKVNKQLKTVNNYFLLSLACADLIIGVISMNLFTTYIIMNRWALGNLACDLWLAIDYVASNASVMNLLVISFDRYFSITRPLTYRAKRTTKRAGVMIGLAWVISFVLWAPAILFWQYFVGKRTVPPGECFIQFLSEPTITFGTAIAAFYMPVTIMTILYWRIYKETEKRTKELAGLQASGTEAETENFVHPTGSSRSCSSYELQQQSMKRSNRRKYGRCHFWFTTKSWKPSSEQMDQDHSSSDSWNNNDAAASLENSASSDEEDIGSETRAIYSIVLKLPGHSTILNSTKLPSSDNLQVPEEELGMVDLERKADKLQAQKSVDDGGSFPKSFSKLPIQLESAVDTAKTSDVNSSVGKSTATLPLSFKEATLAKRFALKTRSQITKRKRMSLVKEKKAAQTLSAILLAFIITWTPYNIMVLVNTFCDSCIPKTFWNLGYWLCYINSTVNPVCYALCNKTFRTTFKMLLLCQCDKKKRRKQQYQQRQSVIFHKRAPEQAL
Sequence of Growth hormone secretagogue receptor type 1 (Q92847 whole entry): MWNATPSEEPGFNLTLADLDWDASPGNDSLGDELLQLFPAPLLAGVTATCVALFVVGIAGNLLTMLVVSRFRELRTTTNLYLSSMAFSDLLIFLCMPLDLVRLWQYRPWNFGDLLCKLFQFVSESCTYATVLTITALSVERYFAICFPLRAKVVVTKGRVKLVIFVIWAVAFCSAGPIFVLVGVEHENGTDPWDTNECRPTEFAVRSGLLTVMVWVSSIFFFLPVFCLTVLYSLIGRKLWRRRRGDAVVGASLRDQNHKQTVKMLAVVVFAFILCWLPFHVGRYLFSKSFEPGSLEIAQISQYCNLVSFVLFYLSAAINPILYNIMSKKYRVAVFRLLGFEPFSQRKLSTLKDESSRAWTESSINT
Sequence of Histamine H2 receptor (P25021 whole entry): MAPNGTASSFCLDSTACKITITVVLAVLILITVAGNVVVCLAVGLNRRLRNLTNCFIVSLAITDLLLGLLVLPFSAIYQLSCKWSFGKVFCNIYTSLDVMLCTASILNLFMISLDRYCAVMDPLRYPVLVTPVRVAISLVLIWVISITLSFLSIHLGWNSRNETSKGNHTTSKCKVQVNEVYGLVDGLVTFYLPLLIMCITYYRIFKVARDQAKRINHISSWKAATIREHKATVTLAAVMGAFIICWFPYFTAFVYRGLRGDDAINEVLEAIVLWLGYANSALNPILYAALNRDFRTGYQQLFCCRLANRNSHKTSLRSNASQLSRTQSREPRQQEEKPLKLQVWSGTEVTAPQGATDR
Sequence of Sodium-dependent dopamine transporter (Q01959 whole entry): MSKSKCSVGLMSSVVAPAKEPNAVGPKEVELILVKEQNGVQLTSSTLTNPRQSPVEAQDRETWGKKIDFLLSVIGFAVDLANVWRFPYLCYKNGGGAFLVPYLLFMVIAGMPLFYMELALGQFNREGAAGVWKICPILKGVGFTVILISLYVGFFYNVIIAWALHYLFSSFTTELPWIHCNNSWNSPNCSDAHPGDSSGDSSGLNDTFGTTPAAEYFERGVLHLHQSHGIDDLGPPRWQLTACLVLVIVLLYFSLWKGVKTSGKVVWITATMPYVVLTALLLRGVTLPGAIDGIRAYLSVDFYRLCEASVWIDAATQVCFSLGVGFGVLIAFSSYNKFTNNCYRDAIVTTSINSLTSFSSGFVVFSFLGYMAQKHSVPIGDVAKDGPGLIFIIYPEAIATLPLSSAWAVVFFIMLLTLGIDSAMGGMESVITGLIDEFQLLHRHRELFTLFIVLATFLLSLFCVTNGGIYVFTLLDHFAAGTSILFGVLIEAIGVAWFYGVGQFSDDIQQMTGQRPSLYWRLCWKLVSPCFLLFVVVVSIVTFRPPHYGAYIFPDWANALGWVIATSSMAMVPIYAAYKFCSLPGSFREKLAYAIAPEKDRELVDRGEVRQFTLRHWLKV

CO[C@@H]1[C@@H](O[C@@H]2O[C@H](C)[C@@H](O[C@H]3C[C@@](C)(O)[C@@H](OC(=O)CC(C)C)[C@H](C)O3)[C@H](N(C)C)[C@H]2O)[C@@H](CC=O)C[C@@H](C)[C@@H](O)/C=C/C=C/C[C@@H](C)OC(=O)C[C@H]1OC(C)=O [JOSAMYCIN]
> 30 µM: [2] | [6]
> 10 µM: all other assays above

Cc1cc(O)c(C(=O)N[C@@H](C(=O)N[C@@H]2C(=O)N3C(C(=O)O)=C(CSc4nnnn4C)CS[C@H]23)c2ccc(O)cc2)cn1 [CEFPIRAMIDE]
> 30 µM: all assays above

COc1cc2c(N)nc(N3CCN(C(=O)OCC(C)(C)O)CC3)nc2c(OC)c1OC [TRIMAZOSIN]
> 30 µM: all assays above

CC(C)C(=O)c1c(C(C)C)nn2ccccc12 [IBUDILAST]
> 30 µM: all assays above

COC(=O)[C@H]1[C@H]2C[C@@H]3c4[nH]c5cc(OC)ccc5c4CCN3C[C@H]2C[C@@H](OC(=O)/C=C/c2cc(OC)c(OC)c(OC)c2)[C@@H]1OC [RESCINNAMINE]
> 30 µM: [2] | Adenosine receptor A3 | Histamine H2 receptor | [6]
18.9 µM: [3]
> 10 µM: all other assays above

O=C(O)/C=C/c1ccc(Cn2ccnc2)cc1 [OZAGREL]
> 30 µM: all assays above

O=C(O)CCCCCCNC1c2ccccc2CCc2ccccc21 [AMINEPTINE]
1.5 µM: [3]
> 30 µM: all other assays above

COc1ccc(-c2ccc3cc(C(=O)O)ccc3c2)cc1C12CC3CC(CC(C3)C1)C2
4.2 µM: Progesterone receptor
> 30 µM: all other assays above

CC(C[N+](C)(C)C)OC(N)=O (configuration not stated) [BETHANECHOL]
> 30 µM: [2] | [6]
> 10 µM: all other assays above

OC(CNCC(O)C1CCc2cc(F)ccc2O1)C1CCc2cc(F)ccc2O1 (configuration not stated) [NEBIVOLOL]
4.5 µM: [4]
4.6 µM: [1]
19 µM: Adenosine receptor A3
3.2 µM: [3]
> 30 µM: all other assays above

COc1ccc2c3c1O[C@H]1C(=O)CC[C@@]4(O)[C@@H](C2)N(C)CC[C@]314 [OXYCODONE]
> 30 µM: all assays above

CCCCCCOc1ccccc1C(N)=O [EXALAMIDE]
14 µM: [3]
> 30 µM: all other assays above

CCOC(=O)[N-]c1cn(N2CCOCC2)n[o+]1 [MOLSIDOMINE]
> 30 µM: all assays above

NCC(=O)CCC(=O)O [AMINOLEVULINIC ACID]
> 30 µM: all assays above

CN1C(=O)C(O)N=C(c2ccccc2Cl)c2cc(Cl)ccc21 (configuration not stated) [LORMETAZEPAM]
> 30 µM: all assays above

O=C(O)[C@H](CC(=O)N1C[C@H]2CCCC[C@H]2C1)Cc1ccccc1 [MITIGLINIDE]
> 30 µM: [2] | [6]
> 10 µM: all other assays above

O=C(NCCNCC(O)COc1ccc(O)cc1)N1CCOCC1 (configuration not stated) [XAMOTEROL]
> 30 µM: all assays above

CC(C)(C)C(=O)Oc1ccc(S(=O)(=O)Nc2ccccc2C(=O)NCC(=O)O)cc1
> 30 µM: all assays above
